Test results taken from the supplement of paper PMC10307832.

Experiments:
Assay in all cases: relative viability (nuclei count vs DMSO), 5 days (fraction); higher = more cells survive
[1] = compound: COC1=C(C=C(C=C1)C2=CC3=NC=CN3C(=N2)NC4=C(C=CC=N4)C(=O)N)OC [BAY61-3606] + COc1cccc2cc(-c3nc([C@H]4CC[C@H](C(=O)O)CC4)n4ncnc(N)c34)[nH]c12 [OSI-027] (partner 0.5 µM)
Outline: (§1)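 Relative viability equals treated-well nuclei counts divided by vehicle-well nuclei counts. Counts came from 4× images of lung cancer cell lines grown in 1536-well plates for 5 days after pin-tool dosing on the day after seeding. Dosing used one drug alone or a fixed anchor-drug dose plus five library-drug doses (not always all listed) in √10 steps, and values are medians of duplicate plates.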

[2] = compound: COC1=C(C=C(C=C1)C2=CC3=NC=CN3C(=N2)NC4=C(C=CC=N4)C(=O)N)OC [BAY61-3606] + O=C(CCCCCCC(=O)Nc1ccccc1)NO [Vorinostat] (partner 1 µM)
Outline: as §1

[3] = compound: COc1cccc2c1C(=O)c1c(O)c3c(c(O)c1C2=O)C[C@@](O)(C(=O)CO)C[C@@H]3O[C@H]1C[C@H](N)[C@H](O)[C@H](C)O1 [Doxorubicin] + C[C@]1(O)C[C@@H](c2nc(-c3ccc4ccc(-c5ccccc5)nc4c3)c3c(N)nccn32)C1 [Linsitinib] (partner 1 µM)
Outline: as §1

[4] = compound: COc1cccc2c1C(=O)c1c(O)c3c(c(O)c1C2=O)C[C@@](O)(C(=O)CO)C[C@@H]3O[C@H]1C[C@H](N)[C@H](O)[C@H](C)O1 [Doxorubicin] + CC1(C)CCC(c2ccc(Cl)cc2)=C(CN2CCN(c3ccc(C(=O)NS(=O)(=O)c4ccc(N[C@H](CCN5CCOCC5)CSc5ccccc5)c(S(=O)(=O)C(F)(F)F)c4)cc3)CC2)C1 [Navitoclax] (partner 0.5 µM)
Outline: as §1

| Cell Line | relative viability ([1]; first compound 0.02 µM) | relative viability ([1]; first compound 0.06325 µM) | relative viability ([1]; first compound 0.2 µM) | relative viability ([1]; first compound 0.6325 µM) | relative viability ([1]; first compound 2 µM) | relative viability ([2]; first compound 0.02 µM) | relative viability ([2]; first compound 0.06325 µM) | relative viability ([2]; first compound 0.2 µM) | relative viability ([2]; first compound 0.6325 µM) | relative viability ([2]; first compound 2 µM) | relative viability ([3]; first compound 0.001 µM) | relative viability ([3]; first compound 0.003162 µM) | relative viability ([3]; first compound 0.01 µM) | relative viability ([3]; first compound 0.03162 µM) | relative viability ([3]; first compound 0.1 µM) | relative viability ([4]; first compound 0.001 µM) | relative viability ([4]; first compound 0.003162 µM) | relative viability ([4]; first compound 0.01 µM) | relative viability ([4]; first compound 0.03162 µM) | relative viability ([4]; first compound 0.1 µM) |
| --- | --- | --- | --- | --- | --- | --- | --- | --- | --- | --- | --- | --- | --- | --- | --- | --- | --- | --- | --- | --- |
| NCI-H522 | 0.653 | 0.646 | 0.686 | 0.717 | 0.738 | 0.896 | 0.869 | 0.839 | 0.733 | 0.661 | – | – | – | – | – | – | – | – | – | – |
| NCI-H650 | 0.509 | 0.532 | 0.439 | 0.495 | 0.513 | 0.466 | 0.414 | 0.428 | 0.355 | 0.35 | 1.01 | 0.753 | 0.949 | 0.709 | 0.411 | – | – | – | – | – |
| NCI-H661 | 0.707 | 0.742 | 0.734 | 0.699 | 0.505 | 0.78 | 0.825 | 0.773 | 0.864 | 0.779 | 0.641 | 0.636 | 0.551 | 0.484 | 0.547 | – | – | – | – | – |
| NCI-H1299 | – | – | – | – | – | – | – | – | – | – | 0.949 | 0.942 | 1.03 | 0.943 | 0.999 | 1.05 | 1.06 | 1.08 | 1.06 | 0.947 |
| NCI-H1563 | 0.742 | 0.764 | 0.699 | 0.71 | 0.676 | – | – | – | – | – | 1.07 | 0.935 | 0.898 | 0.634 | 0.587 | – | – | – | – | – |
| NCI-H1623 | 0.417 | 0.427 | 0.504 | 0.418 | 0.412 | – | – | – | – | – | – | – | – | – | – | – | – | – | – | – |
| NCI-H1648 | 0.219 | 0.257 | 0.263 | 0.229 | 0.217 | 0.797 | 0.44 | 0.648 | – | 0.706 | – | – | – | – | – | – | – | – | – | – |
| NCI-H1650 | 0.702 | 0.442 | 0.666 | 0.686 | 0.396 | 0.611 | 0.551 | 0.5 | 0.665 | 0.61 | – | – | – | – | – | 1.11 | 1.18 | 1.11 | 0.33 | 0.203 |
| NCI-H1703 | – | – | – | – | – | – | – | – | – | – | 0.481 | 0.676 | 0.695 | 0.64 | 0.474 | 0.735 | 0.902 | 0.386 | 0.195 | 0.14 |
| NCI-H1792 | 0.756 | 0.716 | 0.712 | 0.644 | 0.528 | – | – | – | – | – | 0.563 | 0.612 | 0.543 | 0.455 | 0.474 | 0.634 | 0.556 | 0.62 | 0.582 | 0.597 |
| NCI-H2170 | 0.693 | 0.65 | 0.8 | 0.776 | 0.597 | 0.835 | 0.752 | 0.842 | 0.83 | 0.739 | – | – | – | – | – | 0.584 | 0.726 | 0.567 | 0.389 | 0.597 |
| NCI-H2342 | 0.705 | 0.609 | 0.596 | 0.682 | 0.664 | 0.87 | 0.818 | 0.835 | 0.867 | 0.762 | – | – | – | – | – | – | – | – | – | – |
| SW 900 | 0.616 | 0.529 | 0.612 | 0.747 | 0.427 | 0.457 | – | – | 0.564 | 0.439 | – | – | – | – | – | – | – | – | – | – |
